Measured values published in the supplement of paper PMC10307832.

Legend:
Experiment in all cases: relative viability (nuclei count vs DMSO), 5 days (fraction); higher = more cells survive
XMD14-99 = compound: CN1CCN(CC1)C2=CC(=C(C=C2)NC3=NC(=C(S3)C(=O)C4=C(C=CC=C4Cl)Cl)N)OC [XMD14-99]
Procedure, shortened: (§1)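 Lung cancer cell lines were seeded into 1536-well plates, kept overnight at 37 °C and pinned with five library-drug doses (not always all listed) spaced by √10. After 5 days, nuclei were Hoechst-stained, imaged at 4× and counted with MetaXpress. Viability is treated-well nuclei over vehicle-well nuclei, taken as a median across plates. Plates needed control CV below 25% and at least one doubling.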

AZD1208 = compound: N[C@@H]1CCCN(c2c(/C=C3\SC(=O)NC3=O)cccc2-c2ccccc2)C1 [AZD1208]
Procedure, shortened: as §1

AZD1208 + Pemetrexed = compound: N[C@@H]1CCCN(c2c(/C=C3\SC(=O)NC3=O)cccc2-c2ccccc2)C1 [AZD1208] + Nc1nc2[nH]cc(CCc3ccc(C(=O)N[C@@H](CCC(=O)O)C(=O)O)cc3)c2c(=O)[nH]1 [Pemetrexed] (partner 0.2 µM)
Procedure, shortened: (§2)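 Medians of duplicate plates are given as relative viability. That measure is the nuclei count in treated wells divided by the count in vehicle wells. Counts were taken on 4× images of lung cancer cell lines in 1536-well plates, 5 days after pin-tool dosing the day after seeding with one drug alone or a fixed anchor-drug dose plus five library-drug doses (not always all listed) in √10 steps.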

XMD14-99 + Alpelisib = compound: CN1CCN(CC1)C2=CC(=C(C=C2)NC3=NC(=C(S3)C(=O)C4=C(C=CC=C4Cl)Cl)N)OC [XMD14-99] + Cc1nc(NC(=O)N2CCC[C@H]2C(N)=O)sc1-c1ccnc(C(C)(C)C(F)(F)F)c1 [Alpelisib] (partner 2 µM)
Procedure, shortened: as §2

Cell Line | relative viability (XMD14-99; 0.08 µM) | relative viability (XMD14-99; 0.8 µM) | relative viability (XMD14-99; 2.53 µM) | relative viability (XMD14-99; 8 µM) | relative viability (AZD1208; 0.08 µM) | relative viability (AZD1208; 0.253 µM) | relative viability (AZD1208; 0.8 µM) | relative viability (AZD1208; 2.53 µM) | relative viability (AZD1208; 8 µM) | relative viability (AZD1208 + Pemetrexed; first compound 0.08 µM) | relative viability (AZD1208 + Pemetrexed; first compound 0.253 µM) | relative viability (AZD1208 + Pemetrexed; first compound 0.8 µM) | relative viability (AZD1208 + Pemetrexed; first compound 2.53 µM) | relative viability (AZD1208 + Pemetrexed; first compound 8 µM) | relative viability (XMD14-99 + Alpelisib; first compound 0.08 µM) | relative viability (XMD14-99 + Alpelisib; first compound 0.8 µM) | relative viability (XMD14-99 + Alpelisib; first compound 2.53 µM) | relative viability (XMD14-99 + Alpelisib; first compound 8 µM)
LU99A | 0.982 | 1.03 | 0.896 | 0.8 | 0.974 | 0.963 | 0.921 | 0.878 | 0.807 | 0.198 | 0.237 | 0.233 | 0.198 | 0.205 | 0.511 | 0.547 | 0.46 | 0.415
LXF-289 | 1.02 | 0.964 | 0.976 | 0.889 | 1.05 | 1.06 | 1.01 | 1.03 | 1.12 | 0.887 | 1.01 | 0.924 | 0.634 | 1.02 | 1 | 0.971 | 1.02 | 0.835
NCI-H23 | 1.01 | 0.996 | 0.911 | 0.685 | 0.968 | 1.08 | 0.902 | 0.886 | 0.842 | 0.604 | 0.698 | 0.632 | 0.704 | 0.703 | 0.608 | 0.657 | 0.69 | 0.491
NCI-H322M | 0.994 | 0.977 | 0.86 | 0.762 | 0.94 | 0.943 | 0.943 | 0.891 | 1.04 | 0.565 | 0.654 |  | 0.622 | 0.608 | 0.889 | 0.709 | 0.64 | 0.767
NCI-H358 | 0.959 | 0.895 | 0.851 | 0.57 | 0.904 | 0.78 | 0.798 | 0.862 | 0.729 | 0.153 | 0.181 | 0.167 | 0.173 | 0.145 | 0.751 | 0.841 | 0.715 | 0.304
NCI-H441 | 0.912 | 0.968 | 0.847 | 0.645 | 0.937 | 1.14 | 0.896 | 0.989 | 0.736 | 0.234 | 0.263 | 0.237 | 0.263 | 0.256 | 0.773 | 0.598 | 0.68 | 0.706
NCI-H460 | 1.02 | 0.965 | 0.954 | 0.841 | 0.997 | 1.1 | 0.962 | 0.998 | 1.03 | 0.065 | 0.0614 | 0.0662 | 0.0615 | 0.055 | 0.36 | 0.419 | 0.431 | 0.197
NCI-H520 | 0.903 | 0.96 | 0.932 | 0.818 | 0.938 | 1.17 | 0.943 | 0.908 | 0.754 | 0.685 | 0.703 | 0.555 | 0.524 | 0.446 | 0.83 | 0.843 | 0.83 | 0.707
NCI-H596 | 0.944 | 1.05 | 1.01 | 0.887 | 0.908 | 0.951 | 0.844 | 0.949 | 0.677 | 0.523 | 0.507 | 0.537 | 0.498 | 0.407 | 0.503 | 0.587 | 0.477 | 0.568
NCI-H647 | 0.981 | 0.99 | 0.92 | 0.819 | 1.02 | 1.04 | 0.891 | 0.892 | 0.788 | 0.19 | 0.195 | 0.17 | 0.188 | 0.165 | 1.05 | 1.07 | 0.937 | 0.933
NCI-H650 | 1.02 | 1 | 0.98 | 0.808 | 1.09 | 0.972 | 0.833 | 0.759 | 0.73 | 0.893 | 0.939 | 0.893 | 0.703 | 0.867 | 1.15 | 0.982 | 0.922 | 0.922
NCI-H661 | 0.925 | 0.948 | 0.835 | 0.678 | 0.993 | 1.02 | 1.04 | 0.981 | 0.93 | 0.956 | 0.9 | 0.94 | 0.942 | 0.955 | 0.798 | 0.564 | 0.594 | 0.356
NCI-H838 | 0.911 | 0.939 | 0.873 | 0.658 | 0.938 | 0.967 | 0.841 | 0.902 | 0.844 | 0.239 | 0.26 | 0.243 | 0.26 | 0.228 | 1 | 0.928 | 0.904 | 0.604
NCI-H1355 | 0.996 | 0.999 | 0.89 | 0.825 | 1.03 | 0.983 | 0.908 | 0.876 | 0.789 | 1.1 | 0.944 | 0.934 | 1.04 | 1.04 | 0.928 | 0.893 | 0.68 | 0.657
NCI-H1395 | 0.981 | 0.951 | 0.997 | 0.695 | 1.15 | 1 | 0.93 | 0.913 | 0.697 | 0.937 | 0.859 | 0.699 | 0.787 | 0.673 | 1.07 | 1.17 | 1.05 | 0.883
NCI-H1437 | 0.968 | 0.903 | 0.814 | 0.682 | 1.06 | 1.13 | 1.05 | 1.03 | 0.939 | 0.302 | 0.307 | 0.327 | 0.355 | 0.322 | 0.881 | 0.804 | 0.787 | 0.671
NCI-H1563 | 0.926 | 0.999 | 0.92 | 0.833 | 0.962 | 0.928 | 0.952 | 0.956 | 0.923 | 0.762 | 0.764 | 0.734 | 0.705 | 0.768 | 0.85 | 0.894 | 0.957 | 0.869
